# Reference: publication PMC11012124, “Synthesis of Novel Triazine-Based Chalcones and 8,9-dihydro-7H-pyrimido[4,5-b][1,4]diazepines as Potential Leads in the Search of Anticancer, Antibacterial and Antifungal Agents” (International Journal of Molecular Sciences, 2024)
# What was measured:
# OVCAR-4 = assay: cells; details: Homo sapiens, OVCAR-4, 48 h; for CC50: read-out: LC50
# HOP-62 = assay: cells; details: Homo sapiens, HOP-62, 48 h; for CC50: read-out: LC50
# SF-295 = assay: cells; details: Homo sapiens, SF-295, 48 h; for CC50: read-out: LC50
# HT29 = assay: cells; details: Homo sapiens, HT-29, 48 h; for CC50: read-out: LC50
# NCI-H322M = assay: cells; details: Homo sapiens, 48 h; for CC50: read-out: LC50
# NCI-H522 = assay: cells; details: Homo sapiens, NCI-H522, 48 h; for CC50: read-out: LC50
# NCI/ADR-RES = assay: cells; details: Homo sapiens, 48 h; for CC50: read-out: LC50
# U251 = assay: cells; details: Homo sapiens, U-251, 48 h; for GI50: U251, 48 h; for CC50: read-out: LC50
# MDA-MB-468 = assay: cells; details: Homo sapiens, MDA-MB-468, 48 h; for CC50: read-out: LC50
# COLO 205 = assay: cells; details: Homo sapiens, COLO 205, 48 h; for CC50: read-out: LC50
# DU-145 = assay: cells; details: Homo sapiens, DU-145, 48 h; for CC50: read-out: LC50
# [1] = tested on: M. tuberculosis ATCC 27294; assay: Antitubercular broth microdilution MIC; format: cell-based; details: Mycobacterium tuberculosis; M. tuberculosis ATCC 27294 (H37Rv); read-out: Minimum inhibitory concentration (MIC)
# UACC-62 = assay: cells; details: Homo sapiens, UACC-62, 48 h; for CC50: read-out: LC50
# KM12 = assay: cells; details: Homo sapiens, KM12, 48 h; for CC50: read-out: LC50
# HCT-15 = assay: cells; details: Homo sapiens, HCT-15, 48 h; for CC50: read-out: LC50
# SR = assay: cells; details: Homo sapiens, 48 h
# SK-MEL-5 = assay: cells; details: Homo sapiens, SK-MEL-5, 48 h; for CC50: read-out: LC50
# CAKI-1 = assay: cells; details: Homo sapiens, CAKI-1, 48 h; for CC50: read-out: LC50
# SNB-19 = assay: cells; details: Homo sapiens, SNB-19, 48 h; for CC50: read-out: LC50
# SF-268 = assay: cells; details: Homo sapiens, SF-268, 48 h; for CC50: read-out: LC50
# SK-MEL-2 = assay: cells; details: Homo sapiens, SK-MEL-2, 48 h; for CC50: read-out: LC50
# 786-0 = assay: cells; details: Homo sapiens, 786-0, 48 h; for CC50: read-out: LC50
# OVCAR-3 = assay: cells; details: Homo sapiens, OVCAR-3, 48 h; for CC50: read-out: LC50
# T-47D = assay: cells; details: Homo sapiens, T47D, 48 h; for CC50: read-out: LC50
# UO-31 = assay: cells; details: Homo sapiens, UO-31, 48 h; for CC50: read-out: LC50
compound,measurement,setting,value
CN(C)c1nc(NCCNS(=O)(=O)c2ccc(C(=O)/C=C/c3ccccc3)cc2)nc(Nc2ccc(F)cc2)n1 [24a],GI50,OVCAR-4,4.39 µM
same,CC50,OVCAR-4,99.3 µM
same,GI50,HOP-62,11.8 µM
same,CC50,HOP-62,60.6 µM
same,GI50,SF-295,6.96 µM
same,CC50,SF-295,44.5 µM
same,GI50,HT29,3.08 µM
same,CC50,HT29,73.5 µM
same,GI50,NCI-H322M,9.83 µM
same,CC50,NCI-H322M,76.9 µM
same,GI50,NCI-H522,5.47 µM
same,CC50,NCI-H522,53.6 µM
same,GI50,NCI/ADR-RES,7.33 µM
same,CC50,NCI/ADR-RES,50.3 µM
same,GI50,U251,10.4 µM
same,CC50,U251,57.8 µM
same,GI50,MDA-MB-468,2.84 µM
same,CC50,MDA-MB-468,37.6 µM
same,GI50,COLO 205,5.46 µM
same,CC50,COLO 205,56.7 µM
same,GI50,DU-145,12.1 µM
same,CC50,DU-145,53.2 µM
same,MIC,[1],25 µg/mL
same,GI50,UACC-62,6.68 µM
same,CC50,UACC-62,46.9 µM
same,GI50,KM12,3.74 µM
same,CC50,KM12,54 µM
same,GI50,HCT-15,2.04 µM
same,CC50,HCT-15,7.25 µM
same,GI50,SR,2.58 µM
same,CC50,SR; read-out: LC50,> 100 µM
same,GI50,SK-MEL-5,4.7 µM
same,CC50,SK-MEL-5,41.6 µM
same,GI50,CAKI-1,4.75 µM
same,CC50,CAKI-1,52.6 µM
same,GI50,SNB-19,10.4 µM
same,CC50,SNB-19,51 µM
same,GI50,SF-268,5.65 µM
same,CC50,SF-268,65.2 µM
same,GI50,SK-MEL-2,10.6 µM
same,CC50,SK-MEL-2,55.4 µM
same,GI50,786-0,11.2 µM
same,CC50,786-0,56.9 µM
same,GI50,OVCAR-3,8.59 µM
same,CC50,OVCAR-3,48.7 µM
same,GI50,T-47D,3.45 µM
same,CC50,T-47D,41.7 µM
same,GI50,UO-31,4.6 µM
same,CC50,UO-31,41.9 µM
CN(C)c1nc(NCCNS(=O)(=O)c2ccc(C(=O)/C=C/c3ccc(F)cc3)cc2)nc(Nc2ccc(F)cc2)n1 [24f],GI50,OVCAR-4,3.68 µM
same,CC50,OVCAR-4,15.6 µM
same,GI50,HOP-62,8.39 µM
same,CC50,HOP-62,23.5 µM
same,GI50,SF-295,3.4 µM
same,CC50,SF-295,13 µM
same,GI50,HT29,1.9 µM
same,CC50,HT29,3.65 µM
same,GI50,NCI-H322M,4.24 µM
same,CC50,NCI-H322M,17.8 µM
same,GI50,NCI-H522,2.81 µM
same,CC50,NCI-H522,8.9 µM
same,GI50,NCI/ADR-RES,3.25 µM
same,CC50,NCI/ADR-RES,11.6 µM
same,GI50,U251,1.99 µM
same,CC50,U251,4.41 µM
same,GI50,MDA-MB-468,2.55 µM
same,CC50,MDA-MB-468,8.09 µM
same,GI50,COLO 205,2.38 µM
same,CC50,COLO 205,6.56 µM
same,GI50,DU-145,3.94 µM
same,CC50,DU-145,14 µM
same,MIC,[1],25 µg/mL
same,GI50,UACC-62,3.57 µM
same,CC50,UACC-62,14.6 µM
same,GI50,KM12,2 µM
same,CC50,KM12,4.41 µM
same,GI50,HCT-15,1.99 µM
same,CC50,HCT-15,4.28 µM
same,GI50,SK-MEL-5,2.91 µM
same,CC50,SK-MEL-5,11.1 µM
same,GI50,CAKI-1,3.01 µM
same,CC50,CAKI-1,12.7 µM
same,GI50,SNB-19,4.58 µM
same,CC50,SNB-19,16.8 µM
same,GI50,SF-268,3.89 µM
same,CC50,SF-268,16.4 µM
same,GI50,SK-MEL-2,2.77 µM
same,CC50,SK-MEL-2,8.31 µM
same,GI50,786-0,2.56 µM
same,CC50,786-0,6.3 µM
same,GI50,OVCAR-3,1.74 µM
same,CC50,OVCAR-3,3.24 µM
same,GI50,T-47D,3.02 µM
same,CC50,T-47D,11.7 µM
same,GI50,UO-31,2.9 µM
same,CC50,UO-31,11.9 µM
